In BindingDB's records for patent US20230293517 (Adorx Therapeutics, 2023):

Assays:
Test in all cases: Adenosine Receptor Time-Resolved Fluorescence Resonance Energy Transfer (TRFRET) Binding Assay
Adenosine receptor A1 = target: T1, Adenosine receptor A1 (Homo sapiens, UniProt P30542)
T1 sequence (P30542 whole entry): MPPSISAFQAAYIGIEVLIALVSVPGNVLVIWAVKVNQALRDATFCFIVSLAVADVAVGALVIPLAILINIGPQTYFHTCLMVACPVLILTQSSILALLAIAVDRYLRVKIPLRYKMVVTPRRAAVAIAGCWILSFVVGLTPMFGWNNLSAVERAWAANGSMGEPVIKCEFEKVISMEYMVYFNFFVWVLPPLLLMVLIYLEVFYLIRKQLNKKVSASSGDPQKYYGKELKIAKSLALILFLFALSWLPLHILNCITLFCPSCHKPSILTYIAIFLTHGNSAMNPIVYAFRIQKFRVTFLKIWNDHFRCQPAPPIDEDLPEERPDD
Method: (§1) All FRET binding experiments were conducted at room temperature in white 384-well plates, in assay binding buffer containing 1×LabMed (Cisbio, France), 100 μg/mL saponin, 1% DMSO and 0.02% pluronic acid. Binding of the fluorescently labelled Adenosine receptor antagonist XAC (CA200645, FRET acceptor) to terbium-labelled A1, A2a, A2b and A3 adenosine receptors (FRET donors) was detected by time-resolved FRET due to the close proximity of the donor and acceptor in a binding event. To investigate the ability of unlabelled test compounds to bind to Adenosine A1, A2a, A2b and A3 receptors, dose response curves were constructed that determined the ability of a range of concentrations to inhibit the binding of 30 nM CA200645 to the A2b receptor and 100 nM CA200645 to the A1, A2a, and A3 receptor. Serial dilution (1:3 dilutions) of test compounds in neat DMSO and transfer of a 400 nL sample of test compound into the assay plate was carried out using the Mosquito (TTP Labtech, UK). The compound samples were incubated for 2 hours at room temperature with a fixed concentration of CA200645 defined for each receptor (see above) and CHO cell membranes containing the human Adenosine A1 (0.5 μg/well), A2a (0.3 μg/well), A2b (1 μg/well) or A3 (1 μg/well) receptor in 40 μL of assay buffer. Total and non-specific binding of CA200645 was determined in the absence and presence of 10 μM XAC, respectively. Following 2 hours incubation, the level of CA200645 binding was detected on a Pherastar FSX (BMG Labtech, Germany) using standard TR-FRET settings. […] FRET ratios were obtained by multiplying the acceptor/donor ratio value by 10,000. Specific binding was determined by subtracting the non-specific binding FRET ratio from the total binding FRET ratio.

Adenosine receptor A3 = target: T2, Adenosine receptor A3 (Homo sapiens, UniProt P0DMS8)
T2 sequence (P0DMS8 whole entry): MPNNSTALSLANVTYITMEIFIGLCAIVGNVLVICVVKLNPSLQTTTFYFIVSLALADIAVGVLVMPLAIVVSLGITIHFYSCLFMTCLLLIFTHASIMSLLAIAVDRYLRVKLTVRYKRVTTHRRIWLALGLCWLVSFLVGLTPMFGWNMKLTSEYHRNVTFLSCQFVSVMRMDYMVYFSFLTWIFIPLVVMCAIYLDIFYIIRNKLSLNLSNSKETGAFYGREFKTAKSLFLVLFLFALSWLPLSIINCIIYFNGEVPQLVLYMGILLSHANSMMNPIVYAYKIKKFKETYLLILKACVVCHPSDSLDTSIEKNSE
Method: as §1

Adenosine receptor A2b = target: T3, Adenosine receptor A2b (Homo sapiens, UniProt P29275)
T3 sequence (P29275 whole entry): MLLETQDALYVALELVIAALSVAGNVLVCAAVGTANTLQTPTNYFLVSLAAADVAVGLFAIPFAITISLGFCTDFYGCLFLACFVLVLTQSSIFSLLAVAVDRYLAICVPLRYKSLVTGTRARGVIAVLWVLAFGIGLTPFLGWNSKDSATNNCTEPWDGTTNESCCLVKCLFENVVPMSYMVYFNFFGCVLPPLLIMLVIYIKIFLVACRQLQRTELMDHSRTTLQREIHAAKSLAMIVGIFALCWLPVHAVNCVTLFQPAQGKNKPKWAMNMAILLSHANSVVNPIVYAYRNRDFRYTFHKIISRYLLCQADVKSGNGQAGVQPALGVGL
Method: as §1

Adenosine receptor A2a = Adenosine receptor A2a (Homo sapiens, UniProt P29274)
Method: as §1

Sequence of Adenosine receptor A2a (P29274 whole entry): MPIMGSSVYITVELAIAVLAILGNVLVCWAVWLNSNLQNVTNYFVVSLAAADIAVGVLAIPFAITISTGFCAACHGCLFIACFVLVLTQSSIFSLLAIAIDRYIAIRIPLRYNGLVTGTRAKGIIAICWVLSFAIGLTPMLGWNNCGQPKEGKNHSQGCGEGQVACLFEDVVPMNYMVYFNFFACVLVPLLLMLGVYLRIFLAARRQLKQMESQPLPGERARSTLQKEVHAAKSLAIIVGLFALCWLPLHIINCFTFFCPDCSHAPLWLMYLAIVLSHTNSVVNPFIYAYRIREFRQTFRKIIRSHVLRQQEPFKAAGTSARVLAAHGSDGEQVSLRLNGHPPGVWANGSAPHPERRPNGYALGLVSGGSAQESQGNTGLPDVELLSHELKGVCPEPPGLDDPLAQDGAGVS

SMILES | Ki (Adenosine receptor A1) | Ki (Adenosine receptor A3) | Ki (Adenosine receptor A2b) | Ki (Adenosine receptor A2a)
Cc1cc(-c2sc(NC(=O)N3CCOC(C(N)=O)C3)nc2-c2cccc(C#N)c2)cc(C)n1 (configuration not stated) [US20230293517, Example 4.14] | 67 nM | 200 nM | 2.4 nM | 2 nM
Cc1cc(-c2sc(NC(=O)N3CCC4(CC3)CNC(=O)N4C)nc2-c2cccc(C#N)c2)cc(C)n1 [US20230293517, Example 6.51] | 120 nM | 318 nM | 1.2 nM | 
Cc1cc(-c2sc(NC(=O)N3CC4(CCOCC4)C3)nc2-c2cccc(C#N)c2)cc(C)n1 [US20230293517, Example 6.54] | 53 nM | 268 nM | 1.9 nM | 0.38 nM
Cc1cc(-c2sc(NC(=O)N3CC4(CNC(=O)C4)C3)nc2-c2cccc(C#N)c2)cc(C)n1 [US20230293517, Example 6.55] | 86 nM | 273 nM | 2.4 nM | 0.6 nM
Cc1cc(-c2sc(NC(=O)N3CCC4(CC3)CNC(=O)O4)nc2-c2cccc(C#N)c2)cc(C)n1 [US20230293517, Example 6.56] | 75 nM | 368 nM | 1.2 nM | 0.59 nM
Cc1cc(-c2sc(NC(=O)N3CC4(CNC(=O)N4)C3)nc2-c2cccc(C#N)c2)cc(C)n1 [US20230293517, Example 6.57] | 32 nM | 212 nM | 1.3 nM | 0.88 nM
Cc1cc(-c2sc(NC(=O)N3CCC4(CCCC(=O)N4)CC3)nc2-c2cccc(C#N)c2)cc(C)n1 [US20230293517, Example 6.58] | 559 nM | 848 nM | 7.8 nM | 2.27 nM
Cc1cc(-c2sc(NC(=O)N3CCC(C)(C#N)CC3)nc2-c2cccc(C#N)c2)c(F)c(C)n1 [US20230293517, Example 6.66] | 37 nM | 1210 nM | 0.6 nM | 0.43 nM
Cc1cc(-c2sc(NC(=O)N3CC(C)(O)C3)nc2-c2cccc(C#N)c2)c(F)c(C)n1 [US20230293517, Example 6.67] | 22 nM | 201 nM | 1 nM | 2.06 nM
Cc1cc(-c2sc(NC(=O)N3CC(C)(C#N)C3)nc2-c2cccc(C#N)c2)c(F)c(C)n1 [US20230293517, Example 6.68] | 30 nM | 217 nM | 0.6 nM | 0.36 nM
Cc1cc(-c2sc(NC(=O)N3CCC4(CC3)CNC4=O)nc2-c2cccc(C#N)c2)c(F)c(C)n1 [US20230293517, Example 6.69] | 124 nM | 156 nM | 1.4 nM | 0.94 nM
Cc1cc(-c2sc(NC(=O)N3CCC[C@H]3CO)nc2-c2cccc(C#N)c2)cc(C)n1 [US20230293517, Example 6.71] | 110 nM | 62 nM | 4.2 nM | 3.45 nM
Cc1cc(-c2sc(NC(=O)N3CC[C@@H]3C)nc2-c2cccc(C#N)c2)cc(C)n1 [US20230293517, Example 6.72] | 3 nM | 94 nM | 1.2 nM | 1.12 nM
Cc1cc(-c2sc(NC(=O)N3CC[C@H]3CO)nc2-c2cccc(C#N)c2)cc(C)n1 [US20230293517, Example 6.73] | 92 nM | 165 nM | 3.7 nM | 2.51 nM
Cc1cc(-c2sc(NC(=O)N3CCOC[C@@H]3CO)nc2-c2cccc(C#N)c2)cc(C)n1 [US20230293517, Example 6.76] | 39 nM | 321 nM | 21.7 nM | 12.9 nM
Cc1cc(-c2sc(NC(=O)N3CC4(COC4)C3)nc2-c2cccc(C#N)c2C)cc(C)n1 [US20230293517, Example 6.79] | 177 nM | 537 nM | 6 nM | 1.5 nM
Cc1cc(-c2sc(NC(=O)N3CC[C@@H]3CO)nc2-c2cccc(C#N)c2)cc(C)n1 [US20230293517, Example 6.91] | 20 nM | 162 nM | 5.3 nM | 1.66 nM
